From US12595230B2, “Substituted 6,7-dihydro-5H-benzo[7]annulene compounds and their derivatives, processes for their preparation and therapeutic uses thereof” (Sanofi, priority 2020, dated 2026)

Biological target: T1, ERα (Homo sapiens, UniProt P03372)
T1 construct: host or cells: MCF7
T1 sequence (P03372 1-595): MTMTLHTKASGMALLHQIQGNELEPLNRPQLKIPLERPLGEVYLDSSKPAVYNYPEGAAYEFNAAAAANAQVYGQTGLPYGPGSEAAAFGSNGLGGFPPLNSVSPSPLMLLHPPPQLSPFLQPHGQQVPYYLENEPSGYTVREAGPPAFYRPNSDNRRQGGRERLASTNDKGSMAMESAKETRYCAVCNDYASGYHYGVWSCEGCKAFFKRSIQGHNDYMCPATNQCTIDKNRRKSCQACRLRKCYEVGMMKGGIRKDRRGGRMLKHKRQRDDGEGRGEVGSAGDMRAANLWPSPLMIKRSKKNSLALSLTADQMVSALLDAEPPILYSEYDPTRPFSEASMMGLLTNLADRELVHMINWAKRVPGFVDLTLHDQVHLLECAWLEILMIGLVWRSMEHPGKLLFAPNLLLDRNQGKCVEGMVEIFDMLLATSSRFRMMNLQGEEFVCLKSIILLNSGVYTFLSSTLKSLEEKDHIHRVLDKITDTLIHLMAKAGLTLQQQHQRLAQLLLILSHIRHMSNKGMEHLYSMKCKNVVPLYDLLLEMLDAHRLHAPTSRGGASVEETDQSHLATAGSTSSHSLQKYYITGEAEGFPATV
Experiment: Estrogen receptor degradation activity: breast cancer cell ERα in cell western assay (MCF7 cells)
Type: cell-based
Conditions: for % Degradation At 0.3 μM: 4 hours, relative to fulvestrant 0.1 μM positive control; for DC50: 4 hours post compound addition, concentration which degrades 50% of the estrogen receptor, read-out: Degradation IC50
Protocol: Test: Estrogen Receptor Degradation Activity Said test involves measuring the in vitro degradation activity of the compounds of the Table 1a. The measurements of the degradation activities were made using a breast cancer cell ERα in cell western assay as described hereunder. MCF7 cells (ATCC) were seeded in 384 wells microplate (collagen coated) at a concentration of 10000 cells/30 μL per well in red phenol free MEM alpha medium (invitrogen) containing 5% charcoal dextran striped FBS. The following day, 9 points serial 1:5 dilution of each compound was added to the cells in 2.5p L at final concentrations ranging from 0.3-0.0000018 μM (in table 2), or 0.1 μM for fulvestrant (using as positive control). At 4 hours post compound addition the cells were fixed by adding 25 μL of formalin (final concentration 5% formalin containing 0.1% triton) for 10 minutes at room temperature and then washed twice with PBS. Then, 50 μL of LI-COR blocking buffer containing 0.1% Triton was added to plate for 30 minutes at room temperature. LI-COR blocking buffer was removed and cells were incubated overnight at cold room with 50 μL anti-ER rabbit monoclonal antibody (Thermo scientific MA1-39540) diluted at 1:1000 in LI-COR blocking buffer containing 0.1% tween-20. Wells which were treated with blocking buffer but no antibody were used as background control. Wells were washed twice with PBS (0.1% tween-20) and incubated at 37° C. for 60 minutes in LI-COR (0.1% tween-20) containing goat anti-rabbit antibody Alexa 488 (1:1000) and Syto-64 a DNA dye (2 μM final concentration). Cells were then washed 3 times in PBS and scanned in ACUMEN explorer (TTP-Labtech). Integrated intensities in the green fluorescence and red fluorescence were measured to determine the levels of ERα and DNA respectively. The degradation activity with respect to estrogen receptors in this test is given by the concentration which degrades 50% of the estrogen receptor (or IC50) in nM. […] DMSO−fulvestrant)).

| Compound | % Degradation At 0.3 μM [%] | DC50 [nM] |
| --- | --- | --- |
| O=C(O)c1ccc2c(c1)CCCC(C1CC3CCC1C3)=C2c1ccc(CC2CN(CCCF)C2)cc1 (mixture of isomers) [Example 307, 8-(bicyclo[2.2.1]heptan-2-yl)-9-(4-((1-(3-fluoropropyl)azetidin-3-yl)methyl)phenyl)-6,7-dihydro-5H-benzo[7]annulene-3-carboxylic acid] | 84 | 0.4 |
| Cc1c(F)ccc(C2=C(c3ccc(CC4CN(CCCF)C4)cc3)c3ccc(C(=O)O)cc3CCC2C)c1C (racemic) [Example 309, 8-(4-fluoro-2,3-dimethylphenyl)-9-(4-((1-(3-fluoropropyl)azetidin-3-yl)methyl)phenyl)-7-methyl-6,7-dihydro-5H-benzo[7]annulene-3-carboxylic acid] | 88 | 0.4 |
| Cc1c(C2=C(c3ccc(CC4CN(CCCF)C4)cc3)c3ccc(C(=O)O)cc3CCC2C)cccc1C(F)(F)F (racemic) [Example 310, 9-(4-((1-(3-fluoropropyl)azetidin-3-yl)methyl)phenyl)-7-methyl-8-(2-methyl-3-(trifluoromethyl)phenyl)-6,7-dihydro-5H-benzo[7]annulene-3-carboxylic acid] | 85 | 0.4 |
| CC1CCc2cc(C(=O)O)ccc2C(c2ccc(CC3CN(CCCF)C3)cc2)=C1c1ccc(F)cc1C(F)(F)F (racemic) [Example 312, 8-(4-fluoro-2-(trifluoromethyl)phenyl)-9-(4-((1-(3-fluoropropyl)azetidin-3-yl)methyl)phenyl)-7-methyl-6,7-dihydro-5H-benzo[7]annulene-3-carboxylic acid] | 91 | 0.3 |
| CCC1CCc2cc(C(=O)O)ccc2C(c2ccc(CC3CN(CCCF)C3)cc2)=C1c1ccc(Cl)cc1 (racemic) [Example 315, 8-(4-chlorophenyl)-7-ethyl-9-(4-((1-(3-fluoropropyl)azetidin-3-yl)methyl)phenyl)-6,7-dihydro-5H-benzo[7]annulene-3-carboxylic acid] | 87 | 1 |
| CC(C)C1CCc2cc(C(=O)O)ccc2C(c2ccc(CC3CN(CCCF)C3)cc2)=C1c1ccc(Cl)cc1 (racemic) [Example 317, 8-(4-chlorophenyl)-9-(4-((1-(3-fluoropropyl)azetidin-3-yl)methyl)phenyl)-7-isopropyl-6,7-dihydro-5H-benzo[7]annulene-3-carboxylic acid] | 87 | 1.6 |
| O=C(O)c1ccc2c(c1)CCC(C1CC1)C(c1ccc(Cl)cc1)=C2c1ccc(CC2CN(CCCF)C2)cc1 (racemic) [Example 324, 8-(4-chlorophenyl)-7-cyclopropyl-9-(4-((1-(3-fluoropropyl)azetidin-3-yl)methyl)phenyl)-6,7-dihydro-5H-benzo[7]annulene-3-carboxylic acid] | 86 | 0.8 |
| CC1CCc2cc(C(=O)O)ccc2C(c2ccc(CC3CN(CCCF)C3)cc2)=C1c1ccc(F)cc1 (racemic) [Example 325, 8-(4-fluorophenyl)-9-(4-((1-(3-fluoropropyl)azetidin-3-yl)methyl)phenyl)-7-methyl-6,7-dihydro-5H-benzo[7]annulene-3-carboxylic acid] | 89 | 0.5 |
| CC1CCc2cc(C(=O)O)ccc2C(c2ccc(CC3CN(CCCF)C3)cc2)=C1c1ccc(F)c(F)c1 (racemic) [Example 326, 8-(3,4-difluorophenyl)-9-(4-((1-(3-fluoropropyl)azetidin-3-yl)methyl)phenyl)-7-methyl-6,7-dihydro-5H-benzo[7]annulene-3-carboxylic acid] | 91 | 0.7 |
| CC1CCc2cc(C(=O)O)ccc2C(c2ccc(CC3CN(CCCF)C3)cc2)=C1c1cccc(C(F)(F)F)c1 (racemic) [Example 333, 9-(4-((1-(3-fluoropropyl)azetidin-3-yl)methyl)phenyl)-7-methyl-8-(3-(trifluoromethyl)phenyl)-6,7-dihydro-5H-benzo[7]annulene-3-carboxylic acid] | 87 | 0.4 |
| O=C([O-])c1ccc2c(c1)CCCC(C1=C[C@@H]3CCC[C@@H]3C1)=C2c1ccc(CC2CN(CCCF)C2)cc1.[Na+] (relative stereo) [Example 299, sodium 9-(4-((1-(3-fluoropropyl)azetidin-3-yl)methyl)phenyl)-8-(cis-1,3a,4,5,6,6a-hexahydropentalen-2-yl)-6,7-dihydro-5H-benzo[7]annulene-3-carboxylate] | 90 | 0.7 |
| O=C(O)c1ccc2c(c1)CCCC(c1ccc(Cl)cc1Cl)=C2c1ccc(C(O)C2CN(CCCF)C2)cc1 (single isomer, unassigned) [Example 41, 8-(2,4-dichlorophenyl)-9-(4-((1-(3-fluoropropyl)azetidin-3-yl)(hydroxy)methyl)phenyl)-6,7-dihydro-5H-benzo[7]annulene-3-carboxylic acid] | 95 | 1.6 |
| O=C(O)c1ccc2c(c1)CCCC(c1ccc(Cl)cc1Cl)=C2c1ccc(C(O)C2CN(CCCF)C2)cc1 (single isomer, unassigned) [Example 42, 8-(2,4-dichlorophenyl)-9-(4-((1-(3-fluoropropyl)azetidin-3-yl)(hydroxy)methyl)phenyl)-6,7-dihydro-5H-benzo[7]annulene-3-carboxylic acid] | 94 | 3.3 |
| O=C(O)c1ccc2c(c1)CCCC(c1ccc(Cl)cc1Cl)=C2c1ccc(C(F)C2CN(CCCF)C2)cc1 (single isomer, unassigned) [Example 43, 8-(2,4-dichlorophenyl)-9-(4-(fluoro(1-(3-fluoropropyl)azetidin-3-yl)methyl)phenyl)-6,7-dihydro-5H-benzo[7]annulene-3-carboxylic acid] | 90 | 0.4 |
| O=C(O)c1ccc2c(c1)CCCC(c1ccc(Cl)cc1Cl)=C2c1ccc(C(F)C2CN(CCCF)C2)cc1 (single isomer, unassigned) [Example 44, 8-(2,4-dichlorophenyl)-9-(4-(fluoro(1-(3-fluoropropyl)azetidin-3-yl)methyl)phenyl)-6,7-dihydro-5H-benzo[7]annulene-3-carboxylic acid] | 90 | 0.5 |
| CC1CCc2cc(C(=O)O)ccc2C(c2ccc(CC3CN(CCCF)C3)cc2)=C1c1ccc(Cl)cc1Cl (single isomer, unassigned) [Example 302, 8-(2,4-dichlorophenyl)-9-(4-((1-(3-fluoropropyl)azetidin-3-yl)methyl)phenyl)-7-methyl-6,7-dihydro-5H-benzo[7]annulene-3-carboxylic acid] | 90 | 0.6 |
| CC1CCc2cc(C(=O)O)ccc2C(c2ccc(CC3CN(CCCF)C3)cc2)=C1c1ccc(Cl)cc1Cl (single isomer, unassigned) [Example 303, 8-(2,4-dichlorophenyl)-9-(4-((1-(3-fluoropropyl)azetidin-3-yl)methyl)phenyl)-7-methyl-6,7-dihydro-5H-benzo[7]annulene-3-carboxylic acid] | 90 | 0.4 |
